Laboratory results as given in US11472838B2, “Inhibitors of blood coagulation factor XIII” (Zedira GmbH, priority 2018, dated 2022).
*1 amine or outer side, *2 acyl side, *3 side chain or, on linkers, in order; H or OH if unused. Where a SMILES comes first, the peptide text is derived from it. [ ]: non-standard residue; d: D form. The star is where a group is joined. Benzoyl(3-COOH,5-NO2) = O=C(O)c1cc(C(=O)*)cc([N+](=O)[O-])c1; Pro(3S,4R-(CH2)3) = O=C(O)[C@H]1NC[C@@H]2CCC[C@@H]21; Nle(5E-ene,6-CO2Et) = CCOC(=O)/C=C/CC[C@H](N)C(=O)O; Isonicotinoyl(3-COOH) = O=C(O)c1cnccc1C(=O)*; X1 = COC(=O)/C=C/CC[C@H](N[*:1])C(=O)[*:2]; X5 = CNC(=O)/C=C/CC[C@H](N[*:1])C(=O)[*:2]; X8 = NC(=O)/C=C/CC[C@H](N[*:1])C(=O)[*:2]; X3 = O=C(c1cnc(O)c([N+](=O)[O-])c1)*; Pro(4-oxo) = O=C1CN[C@H](C(=O)O)C1; Chg = N[C@H](C(=O)O)C1CCCCC1; Tle = CC(C)(C)[C@H](N)C(=O)O; X4 = O=C(O)c1cncc(C(=O)*)c1; X7 = O=C(O)c1nccnc1C(=O)*

Legend:
TG2 = TG2 (Homo sapiens (Human), UniProt P21980); experiment: Inhibitory activity against TG2 (isopeptidase assay), Tables 3 and 4; assay type: biochemical; details: isopeptidase assay, Table 3; for Selectivity: TG2 versus FXIII; for IC50: read-out: IC50 [nM] TG2
Experimental: (§1) FXIIIa activity has been determined using substrate A101 (Zedira GmbH, Darmstadt, Germany), which is based on the N-terminal dodecapeptide of α2-antipiasmin.
(§2) The mixture was incubated for 20 min at room temperature to activate FXIII. […] For measurements without inhibitor, 15 μL of assay buffer/2% (v/v) DMSO were added. All measurements were performed in triplicate. The respective IC50 values were calculated by non-linear regression using the MARS software package (BMG Labtech).

[1] = Stability of compounds in plasma (HPLC); details: for recovery in plasma determined by HPLC: 37° C., over a period of 2 hours
Experimental: Further, the stability of compounds in plasma was determined as prerequisite for drug-likeness. Briefly, after spiking the chemical entities, the plasma was incubated at 37° C. At certain time points (e.g. at 15 and 120 minutes), 3 vol. cold MeOH were added to extract the compounds. After centrifugation, the supernatant was analyzed by HPLC. The half life was calculated based on the respective calibration curve.

FXIII = FXIII (Homo sapiens (Human), UniProt P00488); experiment: Inhibitory activity against FXIII (isopeptidase assay), Tables 3 and 4; assay type: biochemical; details: isopeptidase assay, Table 3; read-out: IC50 [nM] FXIII;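 also: FXIIIa activity read with a peptide substrate derived from the α2-antiplasmin N-terminal dodecapeptide, FXIII activated beforehand at room temperature, inhibitor-free wells with DMSO buffer as control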
FXIII, sequence (P00488 39-732): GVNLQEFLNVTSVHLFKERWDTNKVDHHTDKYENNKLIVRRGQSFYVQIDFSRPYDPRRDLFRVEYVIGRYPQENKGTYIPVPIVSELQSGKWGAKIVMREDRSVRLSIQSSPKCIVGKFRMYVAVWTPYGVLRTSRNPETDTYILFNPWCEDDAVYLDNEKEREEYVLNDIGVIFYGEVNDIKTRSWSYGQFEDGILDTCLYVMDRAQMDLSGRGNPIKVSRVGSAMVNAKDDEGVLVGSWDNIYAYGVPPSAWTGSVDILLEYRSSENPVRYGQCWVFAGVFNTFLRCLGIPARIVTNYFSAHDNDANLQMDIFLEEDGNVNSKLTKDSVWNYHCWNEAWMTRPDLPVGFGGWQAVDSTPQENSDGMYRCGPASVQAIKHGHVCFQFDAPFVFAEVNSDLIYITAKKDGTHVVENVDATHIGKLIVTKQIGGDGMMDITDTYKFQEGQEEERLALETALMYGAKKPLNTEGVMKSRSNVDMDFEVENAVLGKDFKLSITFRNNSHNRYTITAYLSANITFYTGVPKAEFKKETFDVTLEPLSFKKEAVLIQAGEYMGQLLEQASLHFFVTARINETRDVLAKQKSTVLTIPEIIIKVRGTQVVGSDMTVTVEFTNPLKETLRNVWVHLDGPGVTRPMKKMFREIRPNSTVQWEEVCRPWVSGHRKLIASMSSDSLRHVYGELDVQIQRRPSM
Experimental: as §1, §2

TG2, sequence (P21980 whole entry): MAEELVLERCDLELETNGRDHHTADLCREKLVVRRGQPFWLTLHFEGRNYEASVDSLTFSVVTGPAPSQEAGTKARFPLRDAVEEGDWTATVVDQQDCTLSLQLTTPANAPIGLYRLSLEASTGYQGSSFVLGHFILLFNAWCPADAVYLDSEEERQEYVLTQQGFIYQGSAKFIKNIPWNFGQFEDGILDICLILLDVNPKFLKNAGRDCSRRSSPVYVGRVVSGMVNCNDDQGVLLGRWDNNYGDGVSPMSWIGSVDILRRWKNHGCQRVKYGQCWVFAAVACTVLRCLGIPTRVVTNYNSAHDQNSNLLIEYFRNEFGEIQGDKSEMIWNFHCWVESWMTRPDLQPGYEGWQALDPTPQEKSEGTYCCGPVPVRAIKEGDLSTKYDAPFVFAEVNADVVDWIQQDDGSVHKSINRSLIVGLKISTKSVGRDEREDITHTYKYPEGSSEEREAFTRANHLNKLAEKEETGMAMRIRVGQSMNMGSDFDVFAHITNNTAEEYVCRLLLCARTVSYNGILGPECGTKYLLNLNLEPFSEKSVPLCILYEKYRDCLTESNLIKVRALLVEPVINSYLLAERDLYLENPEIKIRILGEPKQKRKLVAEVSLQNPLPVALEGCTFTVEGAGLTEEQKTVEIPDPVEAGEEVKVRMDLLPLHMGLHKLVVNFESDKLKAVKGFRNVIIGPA

| Structure (SMILES) | Selectivity (TG2) | IC50 (TG2) [nM] | recovery in plasma determined by HPLC [1] [%] | IC50 (FXIII) [nM] | recovery at 2 h [1] [%] |
| --- | --- | --- | --- | --- | --- |
| CCOC(=O)/C=C/CC[C@H](NC(=O)c1ccncc1C(=O)O)C(=O)N[C@H](C(=O)N1CC(=O)C[C@H]1C(=O)N[C@H](C(=O)N[C@H](C(N)=O)C1CCCCC1)C1CCCCC1)C(C)(C)C [8a/b] ({Isonicotinoyl(3-COOH)}-[Nle(5E-ene,6-CO2Et)][Tle][Pro(4-oxo)][Chg][Chg]-NH2) | 19.9 | 417 | > 75 | 21 | – |
| CC(C)(C)[C@H](NC(=O)[C@H](CC/C=C/C(N)=O)NC(=O)c1ccncc1C(=O)O)C(=O)N1CC(=O)C[C@H]1C(=O)N[C@H](C(=O)N[C@H](C(N)=O)C1CCCCC1)C1CCCCC1 [15a/b] ({Isonicotinoyl(3-COOH)}-[X8][Tle][Pro(4-oxo)][Chg][Chg]-NH2) | 7.0 | 483 | > 75 | 69 | – |
| CNC(=O)/C=C/CC[C@H](NC(=O)c1ccncc1C(=O)O)C(=O)N[C@H](C(=O)N1CC(=O)C[C@H]1C(=O)N[C@H](C(=O)N[C@H](C(N)=O)C1CCCCC1)C1CCCCC1)C(C)(C)C [17a/b] ({Isonicotinoyl(3-COOH)}-[X5][Tle][Pro(4-oxo)][Chg][Chg]-NH2) | 7.2 | 295 | > 75 | 41 | – |
| COC(=O)/C=C/CC[C@H](NC(=O)c1ccncc1C(=O)O)C(=O)N[C@H](C(=O)N1CC(=O)C[C@H]1C(=O)N[C@H](C(=O)N[C@H](C(=O)O)C1CCCCC1)C1CCCCC1)C(C)(C)C [34a/b] ({Isonicotinoyl(3-COOH)}-[X1][Tle][Pro(4-oxo)][Chg][Chg]-OH) | 2.7 | 356 | > 75 | 123 | – |
| COC(=O)/C=C/CC[C@H](NC(=O)c1ccncc1C(=O)O)C(=O)N[C@H](C(=O)N1CC(=O)C[C@H]1C(=O)N[C@H](C(=O)N[C@H](C(=O)OC)C1CCCCC1)C1CCCCC1)C(C)(C)C [35a/b] ({Isonicotinoyl(3-COOH)}-[X1][Tle][Pro(4-oxo)][Chg][Chg]-OMe) | 2.3 | 198 | > 75 | 86 | – |
| CNC(=O)[C@@H](NC(=O)[C@@H](NC(=O)[C@@H]1CC(=O)CN1C(=O)[C@@H](NC(=O)[C@H](CC/C=C/C(=O)OC)NC(=O)c1ccncc1C(=O)O)C(C)(C)C)C1CCCCC1)C1CCCCC1 [36a/b] ({Isonicotinoyl(3-COOH)}-[X1][Tle][Pro(4-oxo)][Chg][Chg]-NHMe) | 4.1 | 168 | > 75 | 41 | – |
| COC(=O)/C=C/CC[C@H](NC(=O)c1ccncc1C(=O)O)C(=O)N[C@@H](CCSC)C(=O)N1CC(=O)C[C@H]1C(=O)N[C@H](C(=O)N[C@H](C(N)=O)C1CCCCC1)C1CCCCC1 [37a/b] ({Isonicotinoyl(3-COOH)}-[X1]M[Pro(4-oxo)][Chg][Chg]-NH2) | 4.7 | 324 | > 75 | 69 | – |
| COC(=O)/C=C/CC[C@H](NC(=O)c1nccnc1C(=O)O)C(=O)N[C@H](C(=O)N1CC(=O)C[C@H]1C(=O)N[C@H](C(=O)N[C@H](C(N)=O)C1CCCCC1)C1CCCCC1)C(C)(C)C [Compound 3] (X7-[X1][Tle][Pro(4-oxo)][Chg][Chg]-NH2) | 0.8 | 16 | – | 20 | > 75 |
| COC(=O)/C=C/CC[C@H](NC(=O)c1cc(C(=O)O)cc([N+](=O)[O-])c1)C(=O)N[C@H](C(=O)N1CC(=O)C[C@H]1C(=O)N[C@H](C(=O)N[C@H](C(N)=O)C1CCCCC1)C1CCCCC1)C(C)(C)C [Compound 4] ({Benzoyl(3-COOH,5-NO2)}-[X1][Tle][Pro(4-oxo)][Chg][Chg]-NH2) | 1.1 | 14 | – | 13 | > 75 |
| COC(=O)/C=C/CC[C@H](NC(=O)c1cnc(O)c([N+](=O)[O-])c1)C(=O)N[C@H](C(=O)N1CC(=O)C[C@H]1C(=O)N[C@H](C(=O)N[C@H](C(N)=O)C1CCCCC1)C1CCCCC1)C(C)(C)C [Compound 6] (X3-[X1][Tle][Pro(4-oxo)][Chg][Chg]-NH2) | 0.7 | 12 | – | 17 | > 75 |
| COC(=O)/C=C/CC[C@H](NC(=O)c1cncc(C(=O)O)c1)C(=O)N[C@H](C(=O)N1CCC[C@H]1C(=O)N[C@H](C(=O)N[C@H](C(N)=O)C1CCCCC1)C1CCCCC1)C(C)(C)C [Compound 27] (X4-[X1][Tle]P[Chg][Chg]-NH2) | 2.4 | 64 | – | 27 | > 75 |
| COC(=O)/C=C/CC[C@H](NC(=O)c1cnc(O)c([N+](=O)[O-])c1)C(=O)N[C@H](C(=O)N1C[C@@H]2CCC[C@@H]2[C@H]1C(=O)N[C@H](C(=O)N[C@H](C(N)=O)C1CCCCC1)C1CCCCC1)C(C)(C)C [Compound 28] (X3-[X1][Tle][Pro(3S,4R-(CH2)3)][Chg][Chg]-NH2) | 1.1 | 41 | – | 36 | > 75 |
